# What was measured:
# [1] = tested on: L. suomiensis strain NRRL Y-17356; assay: Hygromycin B growth suppression on YPD agar plates; type: cell-based, Lipomyces suomiensis; conditions: 30° C., L. suomiensis NRRL Y-17356, FIG. 4
# Source text: (§1) For effective selection of transgene expression in Lipomyces strains, several antibiotics were chosen to examine their effects on Lipomyces growth on yeast synthetic complete (SC, Sunrise Science Products, San Diego, Calif.) and yeast extract-peptone-detrose (YPD) medium plates, which included phosphinothricin ammonium (basta), geneticin (G418), hygromycin B (hyg), pyrithiamine and Zeocin (Zeo). Two day old Lipomyces cells grown in YPD liquid culture were used for evaluation of the antibiotic selection on the agar plates of SC or YPD. The original cells were diluted sequentially in 1:10 ratio with dH2O for four times and 10 μl cells from original culture and each dilution were spotted onto the proper agar medium plates. The plates were incubated in 30° C. incubator for 3 days. The inhibition effects of selected antibiotics on the selected plate were documented with Nikon D300s SLR digital camera (Nikon Inc., Melville, N.Y.) or the stereomicroscope-Leica MZ16 (Leica Microsystems, Buffalo Grove, Ill.).
# (§2) About 5 to 10 colonies of 4 day old Lipomyces strains (except L. lipofer NRRL Y-11555 that required additional 4 days growth and more colonies due to its slow growth) grown on YPD medium agar plates were transferred into a 50 ml YPD liquid flask culture and grown at 30° C. and 200 rpm for 50 hrs. […]
# [2] = tested on: L. lipofer (NRRL Y-11555); assay: Antibiotic growth suppression on SC medium agar plates; type: cell-based, Lipomyces lipofer; conditions: 100 mg/l, 30° C., FIG. 3
# Source text: as §1, §2
# [3] = tested on: all L. starkeyi strains and Lipomyces species; assay: Hygromycin B growth suppression on YPD agar plates; type: cell-based, Lipomyces sp.; conditions: 30° C., all strains and species except L. suomiensis NRRL Y-17356, FIG. 4
# Source text: as §1, §2
# [4] = tested on: L. doorenjongii (NRRL Y-27504); assay: Antibiotic growth suppression on SC medium agar plates; type: cell-based, Lipomyces doorenjongii; conditions: 100 mg/l, 30° C., FIG. 3
# Source text: as §1, §2
# [5] = tested on: Lipomyces strains; assay: Hygromycin B inhibition on Aspergillus minimal medium; type: cell-based, Lipomyces sp.; conditions: 10 mg/l
# [6] = tested on: parent Lipomyces strains (Y-); assay: Hygromycin resistance of parent Lipomyces cells, 1/10 series dilutions on YPD agar plates; type: cell-based, Lipomyces sp.; conditions: 10 or 25 mg/l hygromycin B with 250 mg/L cefotaxime, FIG. 10
# Protocol: The hygromycin resistance of parent and transformed Lipomyces cells in a 1/10 series dilutions were compared on the same YPD agar plates with either 10 or 25 mg/l hygromycin B (hyg10 or hyg25, respectively) and 250 mg/L cefotaxime. […] The integration of pTef1-hph transgene expression cassette (FIG. 11A) was also confirmed by Southern blotting analysis which indicated 1 to 2 copies of the gene were inserted (FIG. 11B).
# [7] = tested on: L. starkeyi; assay: Antibiotic growth suppression on yeast synthetic complete (SC) medium agar plates; type: cell-based, Lipomyces starkeyi; conditions: 30° C.
# Source text: as §1, §2
smiles,measurement,setting,value
CN[C@H]1C[C@@H](N)[C@H](O)[C@@H](O[C@@H]2O[C@H](CO)[C@H](O)[C@@H]3OC4(O[C@H]23)O[C@H]([C@@H](N)CO)[C@H](O)[C@H](O)[C@H]4O)[C@@H]1O (some centres unmarked) [hygromycin B],concentration needed to suppress the growth,[1],at least 10 mg/l
same,growth suppression of L. lipofer (NRRL Y-11555),[2],effectively suppress the growth
same,concentration sufficient to suppress the growth,[3],2.5 mg/L
same,growth suppression of L. doorenjongii (NRRL Y-27504),[4],effectively suppress the growth
same,inhibition of Lipomyces strains,[5],effective inhibition
same,growth of parent strains under hygromycin selection,[6],severely suppressed
same,growth selection (growth suppression) of L. starkeyi,"[7]; 100 mg/l hygromycin B, FIG. 2",effective
same,"growth suppression of three other L. starkeyi strains (NRRL Y-27493, NRRL Y-27494, NRRL Y-27495)","[7]; 100 mg/l, FIG. 3",effectively suppress the growth
